Entries after “also recorded” stand apart in the source; their conditions may differ.
Test system: PMVK expression
Assay: virtual Northern blot analysis of differential PMVK expression in response to chlorsulfuron
Assay type: in vivo, Arabidopsis thaliana cv. Columbia
Conditions: Arabidopsis plants harvested 24 hours after treatment with chlorsulfuron 10 g/ha vs control treatment
Method: Suppression subtractive hybridization constitutes a method of isolating differentially expressed genes. The two samples to be compared were on the one hand Arabidopsis plants which had been harvested 24 hours after treatment with a herbicide (chlorsulfuron, 10 g/ha) and, on the other hand, Arabidopsis plants which had been harvested 24 hours after a control treatment. The 370 bp PMVK fragment was isolated from the chlorsulfuron-treated plants in which PMVK transcription may have been induced by the treatment. To verify differential PMVK expression in the response to chlorsulfuron, so-called virtual Northern blot analyses were carried out. In a virtual Northern blot, cDNA is prepared from total RNA with Clontech's SMART method (see manufacturer's instructions) and amplified by PCR. A low enough number of PCR cycles is employed so that the amplification is still within the linear range of the PCR. In the present case, an optimum between 15 and 18 cycles emerged. The SMART cDNA is separated on an agarose gel by methods known to the skilled worker, transferred to a nylon membrane and hybridized with a DIG-labelled probe. This method permits study of the expression even of genes with a low expression level.

COc1nc(C)nc(NC(=O)NS(=O)(=O)c2ccccc2Cl)n1 [chlorsulfuron]
induction of PMVK expression: low degree of induction; also recorded: possible to induce this gene
